Measured values from US12065404B2, “C4-carboxylic acid-substituted tryptamine derivatives and methods of using” (priority 2022, dated 2024).
“And” between values parts separate entries of the source, which are not always exact repeats. Equal entries are not always repeated.

Tests used:
[1] = Mouse pharmacokinetic (PK) study, parent compound and psilocin metabolite in plasma; format: in vivo, C57Bl/6 mice; details: mouse; for Plasma concentration of psilocin: 24 h
Source text: Briefly, the procedure was as follows. […] 19, 2022.

[2] = In vitro metabolic stability / psilocin release, liver fractions (HLM, HLS9); format: in vitro ADME, human; details: HLM and HLS9, 2 hours, 37° C.
Source text: (§1) A fundamental evaluation in drug development is the assessment of absorption, distribution, metabolism, excretion, and pharmacokinetics (ADME/PK) (Eddershaw et al., 2000, Drug Discovery Today 5(9): 409-414). […] Drug stability upon exposure to human liver microsomes and liver S9 cellular fractions is a common in vitro assay to approximate in vivo, liver-based drug metabolism (Richardson et al., 2016 Drug Metabolism Letters 10:83-90). First-pass metabolism is also often approximated in vitro using intestinal microsome and cellular S9 fractions (Hatley et al., 2017, Biopharmaceuticals & Drug Disposition, 38(2):155-160). […] Supernatants were analyzed for the presence of candidate prodrugs (parent molecule) and psilocin (the predicted metabolite) using Orbitrap LC-MS (Thermo Scientific) using previously described methods (Menendez-Perdomo et al., 2021, J Mass Spectrom, 56: e4683). […] Assay concentrations (μM) of both parent ‘prodrug’ molecule and psilocin metabolite, as quantified through LC-MS using routine standard curve procedures, were plotted as functions of assay time (minutes). The metabolism rate (T1/2) was determined from the metabolism curve plot using the one phase decay feature of GraphPad PRISM software (Version 9.2.0). The quantity of parent prodrug at time zero was set as 100%. […]

[3] = In vitro metabolic stability / psilocin release, AB serum; format: in vitro ADME; details: 10% human AB serum
Source text: as §1

[4] = Stability in enzyme-free control buffer; format: physicochemical; details: pH 7.4
Source text: A fundamental evaluation in drug development is the assessment of absorption, distribution, metabolism, excretion, and pharmacokinetics (ADME/PK) (Eddershaw et al., 2000, Drug Discovery Today 5(9): 409-414). […] Drug stability upon exposure to human liver microsomes and liver S9 cellular fractions is a common in vitro assay to approximate in vivo, liver-based drug metabolism (Richardson et al., 2016 Drug Metabolism Letters 10:83-90). First-pass metabolism is also often approximated in vitro using intestinal microsome and cellular S9 fractions (Hatley et al., 2017, Biopharmaceuticals & Drug Disposition, 38(2):155-160). […] Supernatants were analyzed for the presence of candidate prodrugs (parent molecule) and psilocin (the predicted metabolite) using Orbitrap LC-MS (Thermo Scientific) using previously described methods (Menendez-Perdomo et al., 2021, J Mass Spectrom, 56: e4683). […] Assay concentrations (μM) of both parent ‘prodrug’ molecule and psilocin metabolite, as quantified through LC-MS using routine standard curve procedures, were plotted as functions of assay time (minutes). The metabolism rate (T1/2) was determined from the metabolism curve plot using the one phase decay feature of GraphPad PRISM software (Version 9.2.0). The quantity of parent prodrug at time zero was set as 100%.

CN(C)CCc1c[nH]c2cccc(OP(=O)(O)O)c12 [psilocybin, reference compound]
tmax ([1]; male, C57Bl/6, plasma, iv, 1 mg/kg i.v., individual animals, read-out: tmax of administered (parent) compound): 5 min | Detectability of administered compound in plasma, i.v. administered animals ([1]; 1 mg/kg i.v.): only detectable in i.v. administered animals | Detectability of administered compound in plasma, orally administered animals ([1]; oral, any dose (1, 3, 10 mg/kg)): not detectable in orally administered animals at any dose | Plasma concentration of administered (parent) compound ([1]; 1 mg/kg i.v., 5 min, individual animals, 1 mg/kg): 19.7 ng/mL and 76.8 ng/mL and 334 ng/mL | Plasma concentration of administered (parent) compound ([1]; 1 mg/kg i.v., 0.25 h, individual animals, 1 mg/kg): 3.32 ng/mL and 8.95 ng/mL and 27.2 ng/mL | Plasma concentration of administered (parent) compound ([1]; 1 mg/kg i.v., 0.5 h, individual animals, 1 mg/kg): No Peak and 2.35 ng/mL and 6.21 ng/mL | Plasma concentration of administered (parent) compound ([1]; 1 mg/kg i.v., 1 h, individual animals, 1 mg/kg): No Peak | Plasma concentration of administered (parent) compound ([1]; 1 mg/kg i.v., 2 h, individual animals): No Peak | Plasma concentration of administered (parent) compound ([1]; 1 mg/kg i.v., 4 h, individual animals): No Peak | Plasma concentration of administered (parent) compound ([1]; 1 mg/kg i.v., 6 h, individual animals): No Peak | Plasma concentration of administered (parent) compound ([1]; 1 mg/kg i.v., 8 h, individual animals, 1 mg/kg): No Peak | tmax of administered (parent) compound ([1]; 1 mg/kg i.v., individual animals): 5 min | Cmax of administered (parent) compound ([1]; 1 mg/kg i.v., individual animals, 1 mg/kg): 19.7 ng/mL and 76.8 ng/mL and 334 ng/mL | Cmax of administered (parent) compound ([1]; 1 mg/kg i.v., mean ± SD): 144 ± 167 ng/mL | tmax of administered (parent) compound ([1]; 1 mg/kg i.v., mean ± SD): 5 ± 0 min | Plasma concentration of psilocin ([1]; prodrug 1.56 mg/kg oral (nominal 1 mg/kg), individual animals): BLQ (BLQ denotes below the lower limit of quantitation (0.2 ng/ml).) | Plasma concentration of psilocin ([1]; prodrug 3 mg/kg oral, individual animals): BLQ (BLQ denotes below the lower limit of quantitation (0.2 ng/ml).) | Stability / conversion to psilocin in liver fractions [2]: stable in liver fractions with no conversion to psilocin | Stability / conversion to psilocin in serum [3]: stable in serum with no conversion to psilocin | Stability in assay buffer [4]: stability of psilocybin was confirmed in assay buffer
